Reference: US11840528B2 (Hoffmann-La Roche Inc., priority 2018, dated 2023)

Key:
h-GABA-A α5β3γ2 [1] = target: T1, h-GABA-A α5β3γ2 (Homo sapiens, UniProt P18507+P31644); assay: Two-electrode voltage clamp electrophysiology in Xenopus laevis oocytes expressing GABAA receptors, modulation of GABA EC20 current; type: cell-based; parameters: host or cells: Xenopus laevis oocytes micro-injected with RNA transcripts of the subunits; conditions: Table 1; for Efficacy (GABA) %: % modulation of GABA EC20 = 100*(Fold increase-1); for Fold increase h-GABA-A α5β3γ2 oocyte: test compound at approx. 30 fold its Ki, GABA at EC20
In short: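 Modulation is reported as % of the GABA EC20 current, calculated as 100*(Fold increase−1) from the peak ratio between a second GABA response carrying compound (applied at roughly 30-fold Ki) and a preceding control response. Oocytes expressing human α5β3γ2 were clamped at −80 mV at room temperature, 3–5 days after injection.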

h-GABA-A α5β3γ2 [2] = target: T1, h-GABA-A α5β3γ2; assay: [3H]flumazenil competition binding assay, membranes of HEK293 cells expressing GABAA receptors; conditions: displacement of [3H]-Flumazenil 0.5 nM, HEK293 cells expressing human receptors, mean of two determinations; Table 1
In short: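 Receptor source: human α5β3γ2 transiently transfected into HEK293 cells, membranes in pH 7.5 Krebs-tris. Filtration through GF/C, then scintillation counting.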

Compound	Efficacy (GABA) % (h-GABA-A α5β3γ2 [1])	Fold increase h-GABA-A α5β3γ2 oocyte (h-GABA-A α5β3γ2 [1])	Ki (h-GABA-A α5β3γ2 [2])
CCOC1CN(c2cnn(Cc3c(-c4ccc(C)nn4)noc3C)c(=O)c2)C1 [Example 170, 5-(3-ethoxyazetidin-1-yl)-2-[[5-methyl-3-(6-methylpyridazin-3-yl)isoxazol-4-yl]methyl]pyridazin-3-one]	111%	2.11	2.2 nM
Cc1ccc(-c2noc(C)c2Cn2ncc(-c3cnn(CC(C)C)c3)cc2=O)cn1 [Example 172, 5-(1-isobutylpyrazol-4-yl)-2-[[5-methyl-3-(6-methyl-3-pyridyl)isoxazol-4-yl]methyl]pyridazin-3-one]	113%	2.13	34 nM
CNc1ccc(-c2cnn(Cc3c(-c4ccc(C)nc4)noc3C)c(=O)c2)cn1 [Example 174, 5-(6-(methylamino)-3-pyridyl)-2-((5-methyl-3-(6-methyl-3-pyridyl)isoxazol-4-yl)methyl)pyridazin-3-one]	101%	2.01	21.7 nM
Cc1ccc(-c2noc(C)c2Cn2ncc(-c3ccnc(OC(F)F)c3)cc2=O)cn1 [Example 175, 5-(2-(difluoromethoxy)pyridin-4-yl)-2-((5-methyl-3-(6-methylpyridin-3-yl)isoxazol-4-yl)methyl)pyridazin-3(2H)-one]	86%	1.86	6.6 nM
Cc1ccc(-c2noc(C)c2Cn2ncc(-c3cnn(CC4(C)COC4)c3)cc2=O)cn1 [Example 176, 2-((5-methyl-3-(6-methylpyridin-3-yl)isoxazol-4-yl)methyl)-5-(1-((3-methyloxetan-3-yl)methyl)-1H-pyrazol-4-yl)pyridazin-3(2H)-one]	103%	2.03	29.7 nM
Cc1ccc(-c2noc(C)c2Cn2ncc(-c3ccnc(OC4CCOC4)c3)cc2=O)cn1 (stereo not drawn) [Example 177, 2-((5-methyl-3-(6-methylpyridin-3-yl)isoxazol-4-yl)methyl)-5-(2-((tetrahydrofuran-3-yl)oxy)pyridin-4-yl)pyridazin-3(2H)-one]	121%	2.21	18.4 nM
COc1cc(-c2cnn(Cc3c(-c4ccc(C)nc4)noc3C)c(=O)c2)cnc1OC [Example 179, 5-(5,6-dimethoxypyridin-3-yl)-2-((5-methyl-3-(6-methylpyridin-3-yl)isoxazol-4-yl)methyl)pyridazin-3(2H)-one]	133%	2.33	29.7 nM
CCOc1ncc(-c2cnn(Cc3c(-c4ccc(C)nc4)noc3C)c(=O)c2)cc1C [Example 180, 5-(6-ethoxy-5-methylpyridin-3-yl)-2-((5-methyl-3-(6-methylpyridin-3-yl)isoxazol-4-yl)methyl)pyridazin-3(2H)-one]	196%	2.96	39 nM
Cc1ccc(-c2noc(C(F)F)c2Cn2ncc(N3C[C@@H](C)O[C@@H](C)C3)cc2=O)cn1 [Example 182, 2-((5-(Difluoromethyl)-3-(6-methylpyridin-3-yl)isoxazol-4-yl)methyl)-5-((2S,6R)-2,6-dimethylmorpholino)pyridazin-3(2H)-one]	209%	3.09	18.9 nM
COc1ncc(-c2cnn(Cc3c(-c4ccc(C)nc4)noc3C)c(=O)c2)cc1F [Example 183, 5-(5-fluoro-6-methoxypyridin-3-yl)-2-((5-methyl-3-(6-methylpyridin-3-yl)isoxazol-4-yl)methyl)pyridazin-3(2H)-one]	137%	2.37	28.7 nM
Cc1ccc(-c2noc(C)c2Cn2ncc(N3CC(OCC4CC4)C3)cc2=O)nn1 [Example 185, 5-[3-(cyclopropylmethoxy)azetidin-1-yl]-2-[[5-methyl-3-(6-methylpyridazin-3-yl)isoxazol-4-yl]methyl]pyridazin-3-one]	126%	2.26	4.2 nM
COc1ncc(-c2cnn(Cc3c(-c4ccc(C)nc4)noc3C)c(=O)c2)cc1Cl [Example 188, 5-(5-chloro-6-methoxypyridin-3-yl)-2-((5-methyl-3-(6-methylpyridin-3-yl)isoxazol-4-yl)methyl)pyridazin-3(2H)-one]	210%	3.1	8.6 nM

Now from value to compound:

Efficacy (GABA) % (h-GABA-A α5β3γ2 [1])	Fold increase h-GABA-A α5β3γ2 oocyte (h-GABA-A α5β3γ2 [1])	Ki (h-GABA-A α5β3γ2 [2])	Compound
56%	1.56	7.8 nM	CCOC1CN(c2cnn(Cc3c(-c4ccc(Cl)cc4)noc3C)c(=O)c2)C1 [Example 161, 2-[[3-(4-chlorophenyl)-5-methyl-isoxazol-4-yl]methyl]-5-(3-ethoxyazetidin-1-yl)pyridazin-3-one]
40%	1.4	18.8 nM	Cc1onc(-c2ccc(Cl)cc2)c1Cn1ncc(N2CC3(CCCO3)C2)cc1=O [Example 162, 2-[[3-(4-chlorophenyl)-5-methyl-isoxazol-4-yl]methyl]-5-(5-oxa-2-azaspiro[3.4]octan-2-yl)pyridazin-3-one]
165%	2.65	11.4 nM	Cc1ccc(-c2noc(C)c2Cn2ncc(-c3ccnc(N4CCNCC4)c3)cc2=O)cn1 [Example 163, 2-((5-methyl-3-(6-methylpyridin-3-yl)isoxazol-4-yl)methyl)-5-(2-(piperazin-1-yl)pyridin-4-yl)pyridazin-3(2H)-one]
149%	2.49	1.7 nM	Cc1ccc(-c2noc(C)c2Cn2ncc(N3CCC(c4ccnn4C)CC3)cc2=O)cn1 [Example 166, 2-[[5-methyl-3-(6-methyl-3-pyridyl)isoxazol-4-yl]methyl]-5-[4-(2-methylpyrazol-3-yl)-1-piperidyl]pyridazin-3-one]
195%	2.95	2.2 nM	CCn1nccc1C1CCN(c2cnn(Cc3c(-c4ccc(C)nc4)noc3C)c(=O)c2)CC1 [Example 167, 5-[4-(2-ethylpyrazol-3-yl)-1-piperidyl]-2-[[5-methyl-3-(6-methyl-3-pyridyl)isoxazol-4-yl]methyl]pyridazin-3-one]
140%	2.4	9.4 nM	Cc1ccc(-c2noc(C)c2Cn2ncc(N3CC(OC(F)F)C3)cc2=O)cn1 [Example 168, 5-[3-(difluoromethoxy)azetidin-1-yl]-2-[[5-methyl-3-(6-methyl-3-pyridyl)isoxazol-4-yl]methyl]pyridazin-3-one]
97%	1.97	2.4 nM	COC1CN(c2cnn(Cc3c(-c4ccc(C)nn4)noc3C)c(=O)c2)C1 [Example 169, 5-(3-methoxyazetidin-1-yl)-2-[[5-methyl-3-(6-methylpyridazin-3-yl)isoxazol-4-yl]methyl]pyridazin-3-one]
80%	1.8	4.2 nM	Cc1ccc(-c2noc(C)c2Cn2ncc(N3CC4(CCCO4)C3)cc2=O)nn1 [Example 171, 2-[[5-methyl-3-(6-methylpyridazin-3-yl)isoxazol-4-yl]methyl]-5-(5-oxa-2-azaspiro[3.4]octan-2-yl)pyridazin-3-one]
80%	1.8	29.7 nM	Cc1ccc(-c2noc(C)c2Cn2ncc(-c3ccc(C4CC4)nc3)cc2=O)cn1 [Example 173, 5-(6-cyclopropyl-3-pyridyl)-2-[[5-methyl-3-(6-methyl-3-pyridyl)isoxazol-4-yl]methyl]pyridazin-3-one]
158%	2.58	2.7 nM	Cc1ccc(-c2noc(C)c2Cn2ncc(N3CC[C@@H](C)C3)cc2=O)cn1 [Example 178, 2-[[5-methyl-3-(6-methyl-3-pyridyl)isoxazol-4-yl]methyl]-5-[(3R)-3-methylpyrrolidin-1-yl]pyridazin-3-one]
134%	2.34	15.7 nM	Cc1ccc(-c2noc(C)c2Cn2ncc(N3CC(F)C3)cc2=O)cn1 [Example 181, 5-(3-fluoroazetidin-1-yl)-2-[[5-methyl-3-(6-methyl-3-pyridyl)isoxazol-4-yl]methyl]pyridazin-3-one]
125%	2.25	28.8 nM	Cc1ccc(-c2noc(C)c2Cn2ncc(N3CCN(C(C)C)[C@@H](C)C3)cc2=O)cn1 [Example 184, 5-[(3S)-4-isopropyl-3-methyl-piperazin-1-yl]-2-[[5-methyl-3-(6-methyl-3-pyridyl)isoxazol-4-yl]methyl]pyridazin-3-one]
160%	2.6	37.4 nM	Cc1ccc(-c2noc(C)c2Cn2ncc(N3CC(Oc4ccc(C)nn4)C3)cc2=O)cn1 [Example 186, 2-[[5-methyl-3-(6-methyl-3-pyridyl)isoxazol-4-yl]methyl]-5-[3-(6-methylpyridazin-3-yl)oxyazetidin-1-yl]pyridazin-3-one]
